Measured values as given in ChEMBL document CHEMBL3612037, “Design and synthesis of some new pyrazolyl-pyrazolines as potential anti-inflammatory, analgesic and antibacterial agents” (Eur J Med Chem, 2015).
Converted amounts (≈) assume the structure as drawn. The source made the active and inactive calls. The rule behind the calls is not given here.

Assays:
Rattus norvegicus [1] = experiment: Anti-inflammatory activity in Wistar rat assessed as inhibition of carrageenan-induced paw oedema at 20 mg/kg, po dosed 30 mins before carrageenan challenge and measured 30 mins post carrageenan challenge; format: functional
Rattus norvegicus [2] = experiment: Anti-inflammatory activity in Wistar rat assessed as inhibition of carrageenan-induced paw oedema at 20 mg/kg, po dosed 30 mins before carrageenan challenge and measured 60 mins post carrageenan challenge; format: functional
Rattus norvegicus [3] = experiment: Anti-inflammatory activity in Wistar rat assessed as inhibition of carrageenan-induced paw oedema at 20 mg/kg, po dosed 30 mins before carrageenan challenge and measured 120 mins post carrageenan challenge; format: functional
Rattus norvegicus [4] = experiment: Anti-inflammatory activity in Wistar rat assessed as inhibition of carrageenan-induced paw oedema at 50 mg/kg, po dosed 30 mins before carrageenan challenge and measured 30 mins post carrageenan challenge; format: functional
Rattus norvegicus [5] = experiment: Anti-inflammatory activity in Wistar rat assessed as inhibition of carrageenan-induced paw oedema at 50 mg/kg, po dosed 30 mins before carrageenan challenge and measured 60 mins post carrageenan challenge; format: functional
Rattus norvegicus [6] = experiment: Anti-inflammatory activity in Wistar rat assessed as inhibition of carrageenan-induced paw oedema at 50 mg/kg, po dosed 30 mins before carrageenan challenge and measured 120 mins post carrageenan challenge; format: functional
Rattus norvegicus [7] = experiment: Analgesic activity in Wistar rat assessed as tail flick latency time at 50 mg/kg, po measured 0 mins post dose by tail flick method (reference value: 3.5 +/- 0.8 secs); format: functional
Rattus norvegicus [8] = experiment: Analgesic activity in Wistar rat assessed as tail flick latency time at 50 mg/kg, po measured 30 mins post dose by tail flick method (reference value: 3.46 +/- 0.1 secs); format: functional
Rattus norvegicus [9] = experiment: Analgesic activity in Wistar rat assessed as tail flick latency time at 50 mg/kg, po measured 60 mins post dose by tail flick method (reference value: 3.47 +/- 0.1 secs); format: functional
Rattus norvegicus [10] = experiment: Analgesic activity in Wistar rat assessed as tail flick latency time at 50 mg/kg, po measured 90 mins post dose by tail flick method (reference value: 3.7 +/- 0.1 secs); format: functional
Mus musculus [11] = experiment: Acute toxicity in Swiss mouse assessed as induction of diarrhoea incidence at 100 to 1000 mg/kg, po measured 48 hrs post dose; format: organism-based; details: in vivo
Mus musculus [12] = experiment: Acute toxicity in Swiss mouse assessed as induction of depression incidence at 100 to 1000 mg/kg, po measured 48 hrs post dose; format: organism-based; details: in vivo
[13] = Acute toxicity in Swiss mouse at 100 to 1000 mg/kg, po measured 48 hrs post dose; format: organism-based; details: in vivo
Staphylococcus [14] = experiment: Antimicrobial activity against Staphylococcus citreus at 20 uL of 1 mg/ml by disc diffusion assay; format: functional; details: read-out: IZ
Staphylococcus aureus [15] = experiment: Antimicrobial activity against Staphylococcus aureus at 20 uL of 1 mg/ml by disc diffusion assay; format: functional; details: read-out: IZ
Aeromonas hydrophila [16] = experiment: Antimicrobial activity against Aeromonas hydrophila at 20 uL of 1 mg/ml by disc diffusion assay; format: functional; details: for zone of inhibition at 1000 µg/mL: read-out: IZ
Escherichia coli [17] = experiment: Antimicrobial activity against Escherichia coli at 20 uL of 1 mg/ml by disc diffusion assay; format: functional; details: for zone of inhibition at 1000 µg/mL: read-out: IZ
Escherichia coli [18] = experiment: Antimicrobial activity against Escherichia coli by agar dilution method; format: functional
Staphylococcus aureus [19] = experiment: Antimicrobial activity against Staphylococcus aureus by agar dilution method; format: functional
Aeromonas hydrophila [20] = experiment: Antimicrobial activity against Aeromonas hydrophila by agar dilution method; format: functional
Staphylococcus [21] = experiment: Antimicrobial activity against Staphylococcus citreus by agar dilution method; format: functional
Rattus norvegicus [22] = experiment: Analgesic activity in Wistar rat assessed as tail flick latency time at 20 mg/kg, po measured 0 mins post dose by tail flick method (reference value: 3.5 +/- 0.8 secs); format: functional
Rattus norvegicus [23] = experiment: Analgesic activity in Wistar rat assessed as tail flick latency time at 20 mg/kg, po measured 30 mins post dose by tail flick method (reference value: 3.46 +/- 0.1 secs); format: functional
Rattus norvegicus [24] = experiment: Analgesic activity in Wistar rat assessed as tail flick latency time at 20 mg/kg, po measured 60 mins post dose by tail flick method (reference value: 3.47 +/- 0.1 secs); format: functional
Rattus norvegicus [25] = experiment: Analgesic activity in Wistar rat assessed as tail flick latency time at 20 mg/kg, po measured 90 mins post dose by tail flick method (reference value: 3.7 +/- 0.1 secs); format: functional

SMILES | inhibition in vivo at 50 mg/kg (Rattus norvegicus [4]) [%] | inhibition in vivo at 50 mg/kg (Rattus norvegicus [5]) [%] | inhibition in vivo at 50 mg/kg (Rattus norvegicus [6]) [%] | Time (Rattus norvegicus [7]) [s] | Time (Rattus norvegicus [8]) [s] | Time (Rattus norvegicus [9]) [s] | Time (Rattus norvegicus [10]) [s] | Activity (Mus musculus [11]) | Activity (Mus musculus [12]) | LD50 at 48 h [13] [mg/kg] | zone of inhibition at 1000 µg/mL (Staphylococcus [14]) [mm] | zone of inhibition at 1000 µg/mL (Staphylococcus aureus [15]) [mm] | zone of inhibition at 1000 µg/mL (Aeromonas hydrophila [16]) [mm] | zone of inhibition at 1000 µg/mL (Escherichia coli [17]) [mm] | MIC (Escherichia coli [18]) [µg/mL] | MIC (Staphylococcus aureus [19]) [µg/mL] | MIC (Aeromonas hydrophila [20]) [µg/mL] | MIC (Staphylococcus [21]) [µg/mL] | also measured
O=C(O)Cc1ccccc1Nc1c(Cl)cccc1Cl [DICLOFENAC SODIUM] | – | – | – | – | – | – | – | – | – | – | – | – | – | – | – | – | – | – | inhibition in vivo at 20 mg/kg (Rattus norvegicus [1]): 46.8%; inhibition in vivo at 20 mg/kg (Rattus norvegicus [2]): 71%; inhibition in vivo at 20 mg/kg (Rattus norvegicus [3]): 76.6%
Clc1ccc(C2=NNC(c3cn(-c4ccccc4)nc3-c3ccc(Cl)c(Cl)c3)C2)cc1 (stereo unspecified) | 33 | 45.8 | 48.4 | 3.6 | 5.4 | 5.7 | 4.6 | Non-toxic | Non-toxic | 500 | 18 | 21 | 15 | 34 | 200 (≈ 428 µM) | – | – | – | –
CCC(=O)N1N=C(c2ccc(Cl)cc2)CC1c1cn(-c2ccccc2)nc1-c1ccc(Cl)c(Cl)c1 (stereo unspecified) | 47.9 | 61.1 | 68.8 | 3.3 | 6.1 | 6.8 | 5.4 | Non-toxic | Non-toxic | 500 | 18 | 30 | 23 | 19 | – | 300 (≈ 573 µM) | – | – | –
CCC(=O)N1N=C(c2ccc(F)cc2)CC1c1cn(-c2ccccc2)nc1-c1ccc(Cl)c(Cl)c1 (stereo unspecified) | 51.1 | 63.4 | 75.6 | 3.4 | 7.9 | 7.7 | 7.2 | Non-toxic | Non-toxic | 500 | 15 | 23 | 28 | 21 | – | – | 400 (≈ 788 µM) | – | –
CC1(C)S[C@@H]2[C@H](NC(=O)[C@H](N)c3ccccc3)C(=O)N2[C@H]1C(=O)O [AMPICILLIN] | – | – | – | – | – | – | – | – | – | – | – | – | – | – | 100 (≈ 286 µM) | 300 (≈ 859 µM) | 200 (≈ 572 µM) | 200 (≈ 572 µM) | –
CO/N=C(\C(=O)N[C@@H]1C(=O)N2C(C(=O)O)=C(COC(N)=O)CS[C@H]12)c1ccco1 [CEFUROXIME] | – | – | – | – | – | – | – | – | – | – | – | – | – | – | 500 (≈ 1180 µM) | – | 500 (≈ 1180 µM) | 600 (≈ 1410 µM) | –
Clc1ccc(C2=NN(c3ccccc3)C(c3cn(-c4ccccc4)nc3-c3ccc(Cl)c(Cl)c3)C2)cc1 (stereo unspecified) | 45.7 | 53.4 | 61.7 | 4.3 | 6.1 | 6.1 | 4.9 | Non-toxic | Non-toxic | 500 | 19 | 15 | 28 | – | – | – | 400 (≈ 735 µM) | – | inhibition zone (IZ) (Escherichia coli [17]): inactive
CN[C@H](CC(C)C)C(=O)N[C@H]1C(=O)N[C@@H](CC(N)=O)C(=O)N[C@H]2C(=O)N[C@H]3C(=O)N[C@H](C(=O)N[C@H](C(=O)O)c4cc(O)cc(O)c4-c4cc3ccc4O)[C@H](O)c3ccc(c(Cl)c3)Oc3cc2cc(c3O[C@@H]2O[C@H](CO)[C@@H](O)[C@H](O)[C@H]2O[C@H]2C[C@](C)(N)[C@H](O)[C@H](C)O2)Oc2ccc(cc2Cl)[C@H]1O [VANCOMYCIN] | – | – | – | – | – | – | – | – | – | – | – | – | – | – | – | 500 (≈ 345 µM) | – | 500 (≈ 345 µM) | –
CN(C)[C@@H]1C(O)=C(C(N)=O)C(=O)[C@@]2(O)C(O)=C3C(=O)c4c(O)cccc4[C@@](C)(O)[C@H]3C[C@@H]12 [TETRACYCLINE] | – | – | – | – | – | – | – | – | – | – | – | – | – | – | 400 (≈ 900 µM) | 300 (≈ 675 µM) | 400 (≈ 900 µM) | 300 (≈ 675 µM) | –
Fc1ccc(C2=NN(c3ccccc3)C(c3cn(-c4ccccc4)nc3-c3ccc(Cl)c(Cl)c3)C2)cc1 (stereo unspecified) | 44.7 | 55.7 | 60.1 | 3.1 | 4.6 | 5.2 | 4.8 | Non-toxic | Non-toxic | 500 | 37 | 31 | – | 21 | – | 300 (≈ 569 µM) | – | 200 (≈ 379 µM) | inhibition zone (IZ) (Aeromonas hydrophila [16]): inactive
CC(C)=CCN1CC[C@]2(C)c3cc(O)ccc3C[C@H]1[C@H]2C [(+)-PENTAZOCINE] | – | – | – | – | – | – | – | – | – | – | – | – | – | – | – | – | – | – | Time (Rattus norvegicus [22]): 3.6 s; Time (Rattus norvegicus [23]): 7.4 s; Time (Rattus norvegicus [24]): 7.7 s; Time (Rattus norvegicus [25]): 7.9 s
